Data set [1] has as its system Mtb H37Rv. Set-up: method as in PMID 27503647. The settings on record: compounds synthesized and evaluated by Palencia et al. ref [13]; cited from earlier work.
Data set [2] deals with Aspergillus flavus CCM 8363. The data set is described as follows: Antifungal microdilution broth (EUCAST). In kind it is cell-based. Conditions: Aspergillus flavus, CCM8363, read-out: MIC Aspergillus flavus. (Dilution methods test growth across graded concentrations, often in twofold steps.)
For data set [3], the system named is Klebsiella pneumoniae CCM 4415 (ATCC 10031). The data set is described as follows: Antibacterial microdilution broth (EUCAST). The settings on record: Klebsiella pneumoniae, read-out: MIC Klebsiella pneumoniae. In kind it is cell-based.
Data set [4] has as its system Pseudomonas aeruginosa CCM 3955 (ATCC 27853). The data set is described as follows: Antibacterial microdilution broth (EUCAST). In kind it is cell-based. Conditions: read-out: MIC Pseudomonas aeruginosa.
The test system of data set [5] is Mtb MATI (MDR clinical isolate). Nature of the data set: microbe, parasite or virus in culture. Type of data set: cell-based. The settings on record: Mycobacterium tuberculosis, read-out: MIC Mtb MATI.
For data set [6], the system named is HepG2 cell line. The data set is described as follows: Cytotoxicity screening, CellTiter 96 assay. Conditions: Homo sapiens, HepG2, 24 h, read-out: IC50 HepG2.
Data set [7] has as its system Aspergillus fumigatus ATCC 204305. The data set is described as follows: Antifungal microdilution broth (EUCAST). Type of data set: cell-based. The settings on record: Aspergillus fumigatus, ATCC204305, read-out: MIC Aspergillus fumigatus.
The subject of data set [8] is Mycolicibacterium aurum DSM 43,999 (ATCC 23366). Nature of the data set: Antimycobacterial microdilution (resazurin) vs M. aurum. Type of data set: cell-based. Conditions: Middlebrook 7H9, resazurin, read-out: MIC M. aurum.
In data set [9] the test system is Escherichia coli CCM 3954 (ATCC 25922). Nature of the data set: Antibacterial microdilution broth (EUCAST). Type of data set: cell-based. The settings on record: Escherichia coli, read-out: MIC Escherichia coli.
Data set [10] deals with Mycobacterium tuberculosis H37Ra ITM-M006710 (ATCC 9431). The data set is described as follows: Antimycobacterial microdilution (resazurin) vs Mtb H37Ra. Type of data set: cell-based. Conditions: Middlebrook 7H9, resazurin, recalculated from µg/mL, read-out: MIC Mtb H37Ra.
In data set [11] the test system is Candida krusei CCM 8271 (ATCC 6258). The data set is described as follows: Antifungal microdilution broth (EUCAST). In kind it is cell-based. Conditions: Pichia kudriavzevii, read-out: MIC Candida krusei.
Data set [12] concerns Mycobacterium kansasii DSM 44,162 (ATCC 12478). The data set is described as follows: Antimycobacterial microdilution (resazurin) vs M. kansasii. The settings on record: Middlebrook 7H9, resazurin, read-out: MIC M. kansasii. In kind it is cell-based.
For data set [13], the system named is Candida tropicalis CCM 8264 (ATCC 750). Nature of the data set: Antifungal microdilution broth (EUCAST). Type of data set: cell-based. The settings on record: read-out: MIC Candida tropicalis.
Data set [14] relates to Lichtheimia corymbifera CCM 8077. Nature of the data set: Antifungal microdilution broth (EUCAST). In kind it is cell-based. Conditions: Lichtheimia corymbifera, CCM8077, read-out: MIC Lichtheimia corymbifera.
The test system of data set [15] is Trichophyton interdigitale CCM 8377 (ATCC 9533). Nature of the data set: Antifungal microdilution broth (EUCAST). Type of data set: cell-based. The settings on record: Trichophyton interdigitale, read-out: MIC Trichophyton interdigitale.
The test system of data set [16] is Mycolicibacterium smegmatis DSM 43,465 (ATCC 607). The data set is described as follows: Antimycobacterial microdilution (resazurin) vs M. smegmatis. Type of data set: cell-based. The settings on record: Middlebrook 7H9, resazurin, read-out: MIC M. smeg.
The test system of data set [17] is Staphylococcus epidermidis CCM 4418 (ATCC 12228). Nature of the data set: Antibacterial microdilution broth (EUCAST). In kind it is cell-based. The settings on record: read-out: MIC Staphylococcus epidermidis.
The test system of data set [18] is Mycobacterium avium DSM 44,156 (ATCC 25291). Nature of the data set: Antimycobacterial microdilution (resazurin) vs M. avium. Type of data set: cell-based. The settings on record: Mycobacterium avium, Middlebrook 7H9, resazurin; read-out: MIC M. avium.
Data set [19] deals with Candida albicans CCM 8320 (ATCC 24433). The data set is described as follows: Antifungal microdilution broth (EUCAST). In kind it is cell-based. Conditions: Candida albicans, read-out: MIC Candida albicans.
The test system of data set [20] is methicillin-resistant Staphylococcus aureus subsp. aureus (MRSA) CCM 4750 (ATCC 43300). The data set is described as follows: microbe, parasite or virus in culture. In kind it is cell-based. Conditions: read-out: MIC Methicillin-resistant Staphylococcus aureus subsp. aureus.
Data set [21] deals with Staphylococcus aureus subsp. aureus CCM 4223 (ATCC 29213). The data set is described as follows: Antibacterial microdilution broth (EUCAST). In kind it is cell-based. The settings on record: read-out: MIC Staphylococcus aureus subsp. aureus.
The subject of data set [22] is Mtb IZAK (MDR clinical isolate). Nature of the data set: microbe, parasite or virus in culture. Type of data set: cell-based. Conditions: Mycobacterium tuberculosis, read-out: MIC Mtb IZAK.
The test system of data set [23] is Enterococcus faecalis CCM 4224 (ATCC 29212). The data set is described as follows: Antibacterial microdilution broth (EUCAST). Type of data set: cell-based. Conditions: read-out: MIC Enterococcus faecalis.
Data set [24] relates to Candida parapsilosis CCM 8260 (ATCC 22019). The data set is described as follows: Antifungal microdilution broth (EUCAST). In kind it is cell-based. The settings on record: Lodderomyces parapsilosis, read-out: MIC Candida parapsilosis.
The subject of data set [25] is Acinetobacter baumannii DSM 30007 (ATCC 19606). The data set is described as follows: Antibacterial microdilution broth (EUCAST). Type of data set: cell-based. Conditions: read-out: MIC Acinetobacter baumannii.
For data set [26], the system named is Mycobacterium tuberculosis H37Rv CNCTC My 331/88 (ATCC 27294). The data set is described as follows: Microplate Alamar Blue assay vs Mtb H37Rv. In kind it is cell-based. Conditions: Mycobacterium tuberculosis, pH 6.6, MABA, Middlebrook 7H9 pH 6.6, recalculated from µg/mL; read-out: MIC Mtb H37Rv.
Data set [27] deals with Mtb laboratory ID MATI. In kind it is cell-based, Mycobacterium tuberculosis. Conditions: strain MATI; for Concentration: CLSI 2021; for Susceptibility: CLSI breakpoints 2021.
Data set [28] deals with Mtb laboratory ID IZAK. Type of data set: cell-based, Mycobacterium tuberculosis. The settings on record: strain IZAK; for Susceptibility: CLSI breakpoints 2020.
Data set [29] has as its system Mtb LeuRS. Set-up: method as in PMID 27503647, PMID 28953378. The settings on record: ref [13],[14]; read-out: IC50 against LeuRS; cited from earlier work.

pIC50: −log10 of the molar value. In brackets after ≈: the same amount, converted by molar mass. Read-outs that look alike come from different tables or passages of the source. Marks after values point to notes of the source that are not given here.

In the case of “3-aminomethylbenzoxaborole [Compound C00022]”, in data set [1], the “MIC Mtb H37Rv” value is given as 11.04 * µM.
The term pIC50 denotes the IC50 on a negative log10 scale, so that one unit is a factor of ten. Broadly, the melting point is the temperature, or range, at which the solid turns liquid. `O=C(Nc1ccc2c(c1)B(O)OC2)c1cnc(Cl)cn1` [Compound 5, 5-chloro-N-(1-hydroxy-1,3-dihydrobenzo[c][1,2]oxaborol-6-yl)pyrazine-2-carboxamide] yielded a melting point of 233.8 to 235.3 °C. For the same compound, the MIC in data set [2] (24h incubation) was over 500 µM. Further, the MIC in data set [2] (48h incubation) is over 500 µM. The MIC in data set [3] (24h incubation) was over 500 µM. In data set [3] (48h incubation), the MIC is over 500 µM. The MIC in data set [4] (24h incubation) was over 500 µM. For the same compound, the MIC in data set [4] (48h incubation) was over 500 µM. Moreover, the MIC in [5] is 43.2 µM (≈ 12.5 µg/mL). The pIC50 in data set [6] was 4.08. Further, the MIC in data set [7] (24h incubation) was over 500 µM. In addition, the MIC in data set [7] (48h incubation) is over 500 µM. Besides, the MIC in data set [8] is 13.5 µM (≈ 3.91 µg/mL). For the same compound, the MIC in data set [9] (24h incubation) is over 500 µM. Also, the MIC in [9] (48h incubation) is over 500 µM. Moreover, the MIC in data set [10] was 27 µM (≈ 7.81 µg/mL). The MIC in data set [11] (24h incubation) was over 500 µM. Further, the MIC in [11] (48h incubation) is over 500 µM. Moreover, the MIC in [12] was 108 µM (≈ 31.3 µg/mL). Also, the MIC in [13] (24h incubation) is over 500 µM. Also, the MIC in data set [13] (48h incubation) was over 500 µM. Further, in data set [14] (24h incubation), the MIC was over 500 µM. Also, the MIC in data set [14] (48h incubation) is over 500 µM. Besides, the MIC in data set [15] (72h incubation) was over 500 µM. Also, the MIC in data set [15] (120h incubation) was over 500 µM. Further, the MIC in [16] stood at 54 µM (≈ 15.6 µg/mL). Moreover, the MIC in data set [17] (24h incubation) is over 500 µM. Moreover, in data set [17] (48h incubation), the MIC is over 500 µM. Moreover, the MIC in data set [18] is 54 µM (≈ 15.6 µg/mL). The MIC in [19] (24h incubation) was over 500 µM. Also, in [19] (48h incubation), the MIC was over 500 µM. Further, in [20] (24 h), the MIC was over 500 µM. Besides, in data set [20] (48 h), the MIC is over 500 µM. In data set [21] (24h incubation), the MIC was over 500 µM. For the same compound, the MIC in data set [21] (48h incubation) is over 500 µM. Moreover, in [22], the MIC was 43.2 µM (≈ 12.5 µg/mL). The MIC in data set [23] (24h incubation) is over 500 µM. Moreover, the MIC in data set [23] (48h incubation) is over 500 µM. In addition, the MIC in data set [24] (24h incubation) is over 500 µM. Besides, in data set [24] (48h incubation), the MIC was over 500 µM. In data set [25] (24h incubation), the MIC is over 500 µM. For the same compound, the MIC in data set [25] (48h incubation) is over 500 µM. Further, the MIC in data set [26] was 21.6 µM (≈ 6.25 µg/mL).
For the compound `OB1OCc2ccccc21` [Compound C00021, (3H)-Benzo[c][1,2]oxaborol-1-ol], the “MIC Mtb H37Rv” value in data set [1] is 55.99 * µM.
Turning to `CC[C@@H](CO)NCCN[C@@H](CC)CO` [EMB, ethambutol], the Concentration in data set [27] and in data set [28] (CLSI 2020) was 2.45 µM in each case. Also, the Susceptibility entry in data set [27] and in data set [28] was “sensitive” throughout. The MIC in data set [5] was 7.64 µM (≈ 1.56 µg/mL); in data set [22] it was 7.64 µM (≈ 1.56 µg/mL); in data set [26], 1.91 µM (≈ 0.39 µg/mL).
As to `NC[C@H]1OB(O)c2c(OCCO)ccc(Cl)c21` [GSK656, (S)-3-(Aminomethyl)-4-chloro-7-(2hydroxyethoxy)benzo c 1,2 oxaborol-1(3 H)-ol], the negative-log IC50 (pIC50) in [29] was 6.70.
In data set [27], `NNC(=O)c1ccncc1` [INH, isoniazid, reference compound] showed a Concentration of over 58.33 µM. Moreover, the Susceptibility result in [27] and in data set [28] was “resistant” in each case. For the same compound, the MIC in data set [5] is over 91.2 µM; in data set [8] it was 28.5 µM (≈ 3.91 µg/mL); in data set [10], 3.65 µM (≈ 0.501 µg/mL); in data set [12], 45.6 µM (≈ 6.25 µg/mL); in data set [16] it was 228 µM (≈ 31.3 µg/mL); in [18] it was 7290 µM (≈ 1000 µg/mL). Also, the MIC in data set [22] is 91.2 µM (≈ 12.5 µg/mL); in [26] it was 2.84 µM (≈ 0.389 µg/mL).

Source of the values: PMC9917560, “Design, Synthesis and Antimicrobial Evaluation of New N-(1-Hydroxy-1,3-dihydrobenzo[c][1,2]oxaborol-6-yl)(hetero)aryl-2-carboxamides as Potential Inhibitors of Mycobacterial Leucyl-tRNA Synthetase” (International Journal of Molecular Sciences, 2023).
